# In patent US20120122727A1, “IN VITRO METHOD FOR PREDICTING WHETHER A COMPOUND IS GENOTOXIC IN VIVO” (priority 2009, published 2012):
# Experiments:
# [1] = system: primary mouse hepatocytes; experiment: Gene expression in primary mouse hepatocytes, GTX vs non-GTX (four-gene classifier, 24 h)
# [2] = system: primary mouse hepatocytes; experiment: Gene expression (Affymetrix Mouse Genome 430 2.0) in primary mouse hepatocytes, true vs false GTX, 24 h and 48 h; details: log2, corrected for vehicle control
# [3] = 24 h exposure, average of four replicates
# [4] = log 2 ratio, 24 h exposure, concentration per Table 4
smiles,measurement,setting,value
"CN(C)N=O [DMN, Dimethylnitrosamine]",score 1700007K13RIK,[1]; [3],1
same,score DDIT4L,[1]; [3],0
same,score GAS2L3,[1]; [3],0
same,score SPC25,[1]; [3],0
same,Ratios of gene expression treated/untreated 1700007K13RIK,[1]; [4],2.141
same,Ratios of gene expression treated/untreated DDIT4L,[1]; [4],0.7662
same,Ratios of gene expression treated/untreated GAS2L3,[1]; [4],0.2166
same,Ratios of gene expression treated/untreated SPC25,[1]; [4],0.8368
same,Total score,"[1]; sum of scores for four genes, 0 = not genotoxic, 1, 2, 3 or 4 = genotoxic",1
same,Gene expression data AF000969 (Cadps2),[2]; 24 h average,−1.039
same,Gene expression data AF022072 (Grb10),[2]; 24 h average,−1.913
same,Gene expression data AF065917 (Lif),[2]; 24 h average,1.804
same,Gene expression data AF204959 (Cyp3a25 /// LOC622249),[2]; 24 h average,−0.2993
same,Gene expression data AF297615 (Ggta1),[2]; 24 h average,3.2188
same,Gene expression data AI594683 (Dmn),[2]; 24 h average,3.164
same,Gene expression data AI596632 (Ptprg /// LOC632664),[2]; 24 h average,−1.9
same,Gene expression data AI987929 (Ndrg1),[2]; 24 h average,−0.9838
same,Gene expression data AK004419 (Fbxl17),[2]; 24 h average,−1.22
same,Gene expression data AK005731 (1700007K13Rik),[2]; 24 h average,5.486
same,Gene expression data AK007766 (1810044A24Rik),[2]; 24 h average,−0.8706
same,Gene expression data AK007854 (1810053B23Rik),[2]; 24 h average,2.173
same,Gene expression data AK009736 (Gpr137b /// LOC664862 /// LOC673335),[2]; 24 h average,−0.8367
same,Gene expression data AK010447 (Smyd3),[2]; 24 h average,−1.0358
same,Gene expression data AK014608 (4632434l11Rik),[2]; 24 h average,1.756
same,Gene expression data AK019979 (2610528E23Rik),[2]; 24 h average,−1.324
same,Gene expression data AV095209 (Mthfd1l),[2]; 24 h average,−1.007
same,Gene expression data AV141095 (1110033M05Rik),[2]; 24 h average,−1.375
same,Gene expression data AV173571 (1700106N22Rik),[2]; 24 h average,−1.0106
same,Gene expression data AV219418 (Ldhb),[2]; 24 h average,2.743
same,Gene expression data AV223474 (Zdhhc14),[2]; 24 h average,−0.9067
same,Gene expression data AV298304 (Homez),[2]; 24 h average,1.8715
same,Gene expression data AV327248 (Zfp365 /// LOC674611),[2]; 24 h average,4.114
same,Gene expression data AV377066 (9130221J18Rik),[2]; 24 h average,0.9605
same,Gene expression data AW240761 (Tbc1d5),[2]; 24 h average,−1.191
same,Gene expression data AW543460 (Pard3),[2]; 24 h average,−1.4802
same,Gene expression data AW543723,[2]; 24 h average,1.95
same,Gene expression data AW986246 (Maoa),[2]; 24 h average,−0.372
same,Gene expression data BB027848 (4732466D17Rik),[2]; 24 h average,1.126
same,Gene expression data BB043558 (9230114K14Rik),[2]; 24 h average,2.407
same,Gene expression data BB275142 (AW456874),[2]; 24 h average,1.902
same,Gene expression data BB308836 (Ppm1l),[2]; 24 h average,−0.9881
same,Gene expression data BB318221 (Zdhhc14),[2]; 24 h average,−1.041
same,Gene expression data BB463610 (4632434l11Rik),[2]; 24 h average,1.9965
same,Gene expression data BB526605 (Mipol1),[2]; 24 h average,−1.5816
same,Gene expression data BB770528 (Rai2),[2]; 24 h average,2.8
same,Gene expression data BB821363 (Scfd2),[2]; 24 h average,−1.143
same,Gene expression data BC004827 (Psat1),[2]; 24 h average,−1.518
same,Gene expression data BC008626 (Icam1),[2]; 24 h average,2.035
same,Gene expression data BC010462 (BC010462),[2]; 24 h average,0.7519
same,Gene expression data BC012247 (Dcxr),[2]; 24 h average,1.6567
same,Gene expression data BC012260 (Psmf1),[2]; 24 h average,1.0548
same,Gene expression data BC015270 (Hist2h3c2),[2]; 24 h average,0.9816
same,Gene expression data BC016073 (Cdkal1),[2]; 24 h average,−1.243
same,Gene expression data BC016265 (Ube2e2),[2]; 24 h average,−1.287
same,Gene expression data BC019882 (Acaa1b),[2]; 24 h average,2.057
same,Gene expression data BC025501 (Aaas),[2]; 24 h average,1.6386
same,Gene expression data BC025837 (Sbk1),[2]; 24 h average,0.9087
same,Gene expression data BC025915 (Cova1),[2]; 24 h average,−0.9502
same,Gene expression data BC026422 (Tgm1),[2]; 24 h average,2.22
same,Gene expression data BF719766 (Thyn1),[2]; 24 h average,1.824
same,Gene expression data BG065754 (Ccng1),[2]; 24 h average,0.9587
same,Gene expression data BG066903 (Kif16b),[2]; 24 h average,−0.8682
same,Gene expression data BG069873 (Gnb1l),[2]; 24 h average,2.2987
same,Gene expression data BG070887 (Gtdc1),[2]; 24 h average,−1.112
same,Gene expression data BG076151 (Ppm1d),[2]; 24 h average,1.946
same,Gene expression data BG261907 (Large),[2]; 24 h average,−1.3871
same,Gene expression data BI651416 (Cdc42bpg),[2]; 24 h average,1.7218
same,Gene expression data BI660702 (Ell3),[2]; 24 h average,2.514
same,Gene expression data BM198879 (Ercc5),[2]; 24 h average,1.2634
same,Gene expression data BM230508 (A030007D23Rik),[2]; 24 h average,2.304
same,Gene expression data NM_007987 (Fas),[2]; 24 h average,2.421
same,Gene expression data NM_008522 (Ltf),[2]; 24 h average,3.616
same,Gene expression data NM_008576 (Abcc1),[2]; 24 h average,−0.9295
same,Gene expression data NM_011176 (St14),[2]; 24 h average,1.574
same,Gene expression data NM_011316 (Saa4),[2]; 24 h average,2.1585
same,Gene expression data NM_012006 (Acot1),[2]; 24 h average,2.033
same,Gene expression data NM_013866 (Zfp385),[2]; 24 h average,2.361
same,Gene expression data NM_018770 (Igsf4a),[2]; 24 h average,−0.8412
same,Gene expression data NM_021451 (Pmaip1),[2]; 24 h average,3.698
same,Gene expression data NM_025770 (Atg10),[2]; 24 h average,−0.5113
same,Gene expression data NM_028803 (Gbe1),[2]; 24 h average,−1.103
same,Gene expression data NM_030697 (Ankrd47),[2]; 24 h average,3.211
same,Gene expression data NM_053168 (Trim11),[2]; 24 h average,1.0583
same,Gene expression data NM_134188 (Acot2),[2]; 24 h average,−0.5001
same,Gene expression data Y15910 (Diap2),[2]; 24 h average,−1.636
same,Gene expression AA561726 average,[2]; 48 h,−0.3534
same,Gene expression AF000969 average,[2]; 48 h,−1.114
same,Gene expression AF022072 average,[2]; 48 h,−1.2797
same,Gene expression AF033112 average,[2]; 48 h,1.817
same,Gene expression AF055573 average,[2]; 48 h,−1.913
same,Gene expression AF069954 average,[2]; 48 h,1.631
